These results are taken from patent publication US5130139A, “Reduction or prevention of skin irritation by drugs” (Alza Corporation, priority 1990, dated 1992).

Series [1] has as its system human skin fibroblasts. Nature of the series: in vitro. From the text:
(§1) The following examples are offered to illustrate the practice of the present invention. It is important to note that this invention is not limited to any particular transdermal device or other form of transdermal delivery, as are commonly known in the art. Nor is this invention limited to a particular formulation. Therefore, the embodiments described herein are merely illustrative and are not intended to limit the scope of the invention in any manner.
(§2) Four beta-adrenergic blocking drugs (propranolol, labetalol, pindolol and timolol) were tested for their uptake and their toxicity in human skin fibroblasts.
(§3) To estimate the toxicity of the tested compounds, the general procedure of the MTT assay (Swisher et al., Models Dermatol., Maibach and Lowe (eds.), Basel, Karger, vol. 4, pp 131-137, 1989) was used. Cell cultures of fibroblasts were incubated for 16 hours in medium containing a range of concentrations of the drug being tested. At the end of the incubation time, the medium was removed and replaced with medium containing MTT at 0.5 mg/ml. After 3 hours, this medium was discarded and the blue formazan, a metabolite of MTT produced only by viable cells, was dissolved in acidified isopropanol. Absorbance of this solution was measured at 540 nm against a reference wavelength of 660 nm. Results were then expressed as percent of control cultures incubated in the same conditions without drug or agent.
(§4) The treated cells were also tested for the cytotoxic effect of propranolol in the presence of various concentrations of monensin, following the procedures of Example 1.
(§5) They were tested with 10^-6 M monensin.
(§6) In the Table, the "factor of protection" is the ratio of the ID50 of the toxic drug incubated with monensin to the ID50 of the toxic drug alone.
(§7) The action of various ionophores and amphiphilic amines on the cytotoxicity of propranolol and chloroquine was determined, following the procedures of Example 1. The "factor of protection" corresponds to the ratio of the ID50 of the toxic drug incubated with uptake-inhibiting agent at the indicated concentration, to the ID50 of the toxic drug alone. The "mode of action" indicates either the ions which are preferentially carried by the tested ionophores or that the agent acts by competition.

The nature of the next series: in vitro. To be noted: human, skin fibroblasts.
From the text: as §1, §2, §3, §4, §5, §6, §7

The nature of series [2]: In vitro permeation through human epidermis from gels. The series is classed as in vitro ADME. To be noted: gels of Example 5; 37° C.; sampled at 3, 8 and 24 hours. How it is done: Circular pieces of human epidermis were mounted in horizontal permeation cells (1.13 cm^2 of effective permeating surface) with the stratum corneum facing the donor compartment of the cell. A known volume (20-23 ml) of 0.2M TRIS buffer pH 7.5 (the receptor solution) was placed in the receptor compartment. The cell was then placed in a water bath-shaker at 37° C. and allowed to equilibrate. A 0.2 ml aliquot of the tested formulation was transferred to the donor compartment. Occlusion was achieved by the use of a teflon film in contact with the formulation. At 3, 8 and 24 hours, the receptor solutions were removed and replaced with equal volumes of fresh receptor solution previously equilibrated at 37° C. Chloroquine was quantified in the samples by fluorometrical measurements. These were carried out at room temperature in a Perkin-ElmerLS-5B luminescence spectrometer. The samples were adjusted to pH 8.65 at a final TRIS concentration of 0.1M and 30% (vol/vol) ethanol. The excitation wavelength was 333 nm and the emission wavelength was 382 nm. Chloroquine concentrations were extrapolated by comparison with a standard curve obtained under the same conditions. […] For each formulation condition, eight permeation cells were used. Results are presented as the means with their associated standard error.

Another series deals with lysosomes. To be noted: literature; cited from earlier work.
For series [3], the system named is skin irritation (erythema), volar forearm. Put plainly: In vivo skin irritation (erythema, Minolta Chromameter) after 16 h application of gel to volar forearm. Details: species or system human. To be noted: monensin 5.0 wt % with chloroquine 1.0 wt % gel.
Experimental: The resulting gels were buffered to pH 8.5 with EPPS buffer and contained 30 wt % ethanol to maintain the solubility of the drug.
All of the gels were placed in such manner. After 16 hours, each cup was removed and the site was washed. At various times thereafter the sites were observed and the intensity of the irritant reaction (the erythema) was scored by measuring skin color with an electronic instrument, the Minolta Chromameter.
Series [4] deals with human skin fibroblasts. Nature of the series: Uptake/accumulation of radiolabelled drug in fibroblasts, 16 h incubation. The series is classed as cell-based. How it is done:
For the uptake studies, cell cultures of fibroblasts were exposed to medium containing the radioactive-labelled drug and incubated for 16 hours. The uptake process was then stopped by removing the medium and rapidly washing the cells with cold PBS three times. The cells were then extracted with methanol which was transferred to counting vials, and the amount of radioactivity was measured by liquid scintillation. To compensate for non-specific binding to the plastic of the wells, wells containing no cells were incubated with the radiolabelled drugs under the same conditions. The radioactive content of those wells was taken as the control value and substracted form the radioactive content of the wells containing cells.
Fibroblast cell cultures were incubated for 16 hours in propranolol (2×10^-7 M) with various concentrations of monensin. The accumulation of propranolol in the cells was then determined, following the procedures of Example 1. […] At 10^-5 M monensin, propranolol uptake was negligible even though the cells were fully viable.

Where [5] appears, read: against chloroquine cytotoxicity, agent 10^-5 M.
[6] abbreviates: against propranolol cytotoxicity, agent 10^-5 M.
Setting [7] is: against chloroquine cytotoxicity, agent 10^-2 M.

Like-named read-outs stand apart in the source and are kept apart here.

In the case of `C1COCCOCCOCCOCCO1` [15-Crown-5], in the series on human skin fibroblasts [1], the “Factor of Protection, Chloroquine (ID50 with agent / ID50 alone)” value was determined as 1 and the “Factor of Protection, Propranolol (ID50 with agent / ID50 alone)” value is on record as 1.
For the compound `Oc1ccc2ccccc2c1-c1c(O)ccc2ccccc12` [(R)(+)-1,1'-bi-2-Naphthol, (R)(+)-1,1'-bi-2-naphthol], in the series on human skin fibroblasts [1] (against chloroquine cytotoxicity, agent 3.5 × 10^-5 M), the “Factor of Protection, Chloroquine (ID50 with agent / ID50 alone)” value was determined as 2.9.
`CNc1ccc2oc(C[C@H]3O[C@@]4(CC[C@H]3C)O[C@H]([C@H](C)C(=O)c3ccc[nH]3)[C@H](C)C[C@H]4C)nc2c1C(=O)O` [A23187]: the “Factor of Protection, Chloroquine (ID50 with agent / ID50 alone)” value in the series with human skin fibroblasts [1] (against chloroquine cytotoxicity, agent 10^-6 M) is listed as 11. For the same compound, the “Factor of Protection, Propranolol (ID50 with agent / ID50 alone)” value in the series with human skin fibroblasts [1] (against propranolol cytotoxicity, agent 10^-6 M) was 1.
With `N#CC(C#N)=NNc1cccc(Cl)c1` [Carbonyl cyanide m-chlorophenylhydrazone, carbonyl cyanide m-chlorophenylhydrazone], in the series on human skin fibroblasts [1] (setting [5]), the “Factor of Protection, Chloroquine (ID50 with agent / ID50 alone)” value is recorded as 13. Besides, the “Factor of Protection, Propranolol (ID50 with agent / ID50 alone)” value with human skin fibroblasts [1] (setting [6]) was found to be 1.
Take `CCN(CC)CCCC(C)Nc1ccnc2cc(Cl)ccc12` (stereo not shown) [Chloroquine, chloroquine]: the CC50 at 16 h in “in vitro” (ID50 (M), Drug + Monensin) was 0.0007 M; in “in vitro” (ID50 (M), Drug Alone), 7e-05 M. Besides, the “Factor of Protection (ID50 with monensin / ID50 alone)” value in the series with human skin fibroblasts [1] came to 10.0. For the same compound, the “Factor of Protection, Propranolol (ID50 with agent / ID50 alone)” value in the series with human skin fibroblasts [1] stood at 1. Besides, the “Permeation through human epidermis with versus without ammonium chloride” value in series [2] was “the same”. Further, the Accumulation in lysosomes result in the series on lysosomes is recorded as “have been shown to accumulate in lysosomes”.
For `CN(C)CCCN1c2ccccc2Sc2ccc(Cl)cc21` [Chlorpromazine], the CC50 at 16 h in “in vitro” (ID50 (M), Drug + Monensin, Table A, with 10^-6 M monensin, 16 h) came out at 1.6e-05 M; in the series “in vitro” (ID50 (M), Drug Alone, Table A, 16 h) it was 1e-05 M. Further, the “Factor of Protection (ID50 with monensin / ID50 alone)” value in the series on human skin fibroblasts [1] is on record as 1.6.
For `CN1CCC[C@@H]1CCO[C@](C)(c1ccccc1)c1ccc(Cl)cc1` [Clemastine], the “Factor of Protection (ID50 with monensin / ID50 alone)” value in the series with human skin fibroblasts [1] was 1.2.
On to `OCCNCCO` [Diethanolamine], for which the “Factor of Protection, Chloroquine (ID50 with agent / ID50 alone)” value in the series with human skin fibroblasts [1] is reported as 1.5.
As for `CCNCC` [Diethylamine], the “Factor of Protection, Chloroquine (ID50 with agent / ID50 alone)” value with human skin fibroblasts [1] (setting [7]) is 3.3.
As to `NCCO` [Ethanolamine], the “Factor of Protection, Chloroquine (ID50 with agent / ID50 alone)” value in the series with human skin fibroblasts [1] was determined as 6.4.
On to `CN(C)CCCN1c2ccccc2CCc2ccccc21` [Imipramine], for which the CC50 at 16 h in “in vitro” (ID50 (M), Drug + Monensin) came to 0.00027 M; in the series “in vitro” (ID50 (M), Drug Alone), 0.00019 M. Further, the “Factor of Protection (ID50 with monensin / ID50 alone)” value with human skin fibroblasts [1] was 1.4.
Consider `CC(C)N` [Isopropylamine], for which the “Factor of Protection, Chloroquine (ID50 with agent / ID50 alone)” value in the series on human skin fibroblasts [1] (setting [7]) is 6.2.
With `CC[C@@]1([C@@H]2O[C@@H]([C@H]3O[C@@](O)(CO)[C@H](C)C[C@@H]3C)C[C@@H]2C)CC[C@H]([C@]2(C)CC[C@]3(C[C@H](O)[C@@H](C)[C@@H]([C@@H](C)[C@@H](OC)[C@H](C)C(=O)O)O3)O2)O1` [Monensin, monensin], the “Effect of monensin on toxicity of five weak base drugs” value in the series with human skin fibroblasts [1] (10^-6 M monensin, clemastine, imipramine, chlorpromazine, quinacrine, chloroquine) was “reduced the toxicity of all the drugs”. For the same compound, in the series with human skin fibroblasts [1] (setting [5]), the “Factor of Protection, Chloroquine (ID50 with agent / ID50 alone)” value was 19. Moreover, the “Factor of Protection, Propranolol (ID50 with agent / ID50 alone)” value in the series with human skin fibroblasts [1] (against propranolol cytotoxicity, agent 10^-5 M, pre-treatment of 2 hours with agent) was found to be 1.41. Moreover, in the series with human skin fibroblasts [1] (monensin 10^-8 M to 10^-5 M), the “Effect of monensin on propranolol toxicity” value is recorded as “dose-dependent decrease of propranolol toxicity”. Besides, in series [3], the “Effect of monensin on irritant reaction (erythema)” value was “reduced the irritant reaction”. Moreover, the “Propranolol uptake at 10^-5 M monensin” value in the series with human skin fibroblasts [4] (propranolol 2×10^-7 M, monensin 10^-5 M) is on record as “negligible”. For the same compound, in the series on human skin fibroblasts [4] (propranolol 2×10^-7 M, monensin 10^-8 M to 10^-5 M), the “Effect of monensin on propranolol uptake in the cells” value is given as “decreased propranolol uptake in the cells in a dose-dependent manner”. Also, in the series with human skin fibroblasts [4] (with propranolol 2×10^-7 M, monensin 10^-5 M), the “Viability of cells at 10^-5 M monensin” value is reported as “fully viable”.
With `CO[C@@H]1C[C@@H](C[C@H]2CC[C@H](C)[C@H]([C@@H](C)C(=O)O)O2)O[C@]2(O[C@](C)([C@H]3CC[C@@](C)([C@@H]4O[C@@H]([C@H]5O[C@@](O)(CO)[C@H](C)C[C@@H]5C)C[C@@H]4C)O3)C[C@H]2C)[C@@H]1C` [Nigericin], in the series with human skin fibroblasts [1] (against chloroquine cytotoxicity, agent 1.5 × 10^-7 M), the “Factor of Protection, Chloroquine (ID50 with agent / ID50 alone)” value was 11.
For the compound `C[C@@H]1C[C@H]2CC[C@H](O2)[C@H](C)C(=O)O[C@@H](C)C[C@@H]2CC[C@@H](O2)[C@@H](C)C(=O)O[C@H](C)C[C@H]2CC[C@H](O2)[C@H](C)C(=O)O[C@@H](C)C[C@@H]2CC[C@@H](O2)[C@@H](C)C(=O)O1` [Nonactin], in the series on human skin fibroblasts [1] (against chloroquine cytotoxicity, agent 5 × 10^-6 M), the “Factor of Protection, Chloroquine (ID50 with agent / ID50 alone)” value was 26. Moreover, the “Factor of Protection, Propranolol (ID50 with agent / ID50 alone)” value in the series with human skin fibroblasts [1] (against propranolol cytotoxicity, agent 5 × 10^-6 M) amounted to 1.
Take `CC(C)NCC(O)COc1cccc2ccccc12` (stereo not shown) [Propranolol, propranolol]: the CC50 at 16 h stood at 0.00028 M in “in vitro” (ID50 (concentration of drug required to kill 50% of the cells), drug alone) and 0.00038 M in “in vitro” (ID50 (concentration of drug required to kill 50% of the cells), drug with monensin). For the same compound, the “Factor of Protection, Chloroquine (ID50 with agent / ID50 alone)” value in the series on human skin fibroblasts [1] was 1.8. In addition, the Accumulation in lysosomes result in the series with lysosomes was “have been shown to accumulate in lysosomes”.
On to `CCN(CC)CCCC(C)Nc1c2ccc(Cl)cc2nc2ccc(OC)cc12` (stereo not shown) [Quinacrine], for which the CC50 at 16 h in “in vitro” (ID50 (M), Drug + Monensin) came to 4.2e-05 M; in “in vitro” (ID50 (M), Drug Alone), 1.3e-05 M. Further, the “Factor of Protection (ID50 with monensin / ID50 alone)” value in the series on human skin fibroblasts [1] is 3.2.
On to `NC(CO)(CO)CO` [Tromethamine], for which the “Factor of Protection, Chloroquine (ID50 with agent / ID50 alone)” value in the series on human skin fibroblasts [1] is reported as 1.2.
As to `CC(C)[C@@H]1NC(=O)[C@H](C)OC(=O)[C@@H](C(C)C)NC(=O)[C@@H](C(C)C)OC(=O)[C@H](C(C)C)NC(=O)[C@H](C)OC(=O)[C@@H](C(C)C)NC(=O)[C@@H](C(C)C)OC(=O)[C@H](C(C)C)NC(=O)[C@H](C)OC(=O)[C@@H](C(C)C)NC(=O)[C@@H](C(C)C)OC1=O` [Valinomycin], the “Factor of Protection, Chloroquine (ID50 with agent / ID50 alone)” value in the series on human skin fibroblasts [1] (setting [5]) is 13. Further, the “Factor of Protection, Propranolol (ID50 with agent / ID50 alone)” value in the series with human skin fibroblasts [1] (setting [6]) stood at 1.
For Ammonium chloride, the “Factor of Protection, Chloroquine (ID50 with agent / ID50 alone)” value in the series on human skin fibroblasts [1] (against chloroquine cytotoxicity, agent 4 × 10^-2 M) is listed as 26. Further, the “Factor of Protection, Propranolol (ID50 with agent / ID50 alone)” value in the series with human skin fibroblasts [1] (against propranolol cytotoxicity, agent 4 × 10^-2 M, pre-treatment of 2 hours with agent) turned out to be 1.3.
As for Gramicidin D, the “Factor of Protection, Chloroquine (ID50 with agent / ID50 alone)” value with human skin fibroblasts [1] (setting [5]) worked out at 31. Besides, the “Factor of Protection, Propranolol (ID50 with agent / ID50 alone)” value in the series with human skin fibroblasts [1] (setting [6]) was 1.
